Measurements reported in US8962637B2, “Bicyclic compounds and their uses as dual c-SRC/JAK inhibitors” (Debiopharm S.A., priority 2010, dated 2015).

Tests used:
[1] = molecular target: c-Src (Homo sapiens (Human), UniProt P12931); test: TR-FRET c-Src kinase assay; assay type: biochemical; conditions: ATP 50 μM; for inhibition at 0.1 µM: read-out: c-SRC % inhibition at 100 nM, 100 nM; for inhibition at 1 µM: read-out: c-SRC % inhibition at 1 μM
Description: Compounds were screened in the TR-FRET assay for JAK2 and c-Src kinase inhibition. Ultra light poly GT (Perkin Elmer) was used as the substrate for JAK2 and c-Src with the ATP concentration of 10 μM and 50 μM, respectively. […] The dose-response curve fitting was done using GraphPad Prism software.

[2] = test system: Mda-Mb-231 cells; test: Cell viability assay (XTT assay), Mda-Mb-231; assay type: cell-based; conditions: Homo sapiens, 72 hrs
Outline: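 MDA-MB-231 cells seeded and dosed next day in triplicate, incubated 72 h. Medium replaced with XTT working solution for 2-5 h, absorbance read at 465 nm, and EC50 values derived from the readings.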

[3] = test system: A549 tumor cells; test: A549 xenograft model; assay type: in vivo
Description: Sub-cutaneous (SC) injection of 5×10^6 A549 tumor cells on the left flank of 48 female athymic nude mice. Randomization of mice 14 days after tumor cell injection into 6 groups of 8 mice each with a mean tumor volume of 134±5 mm3.
Formulation: 20% HPC, 2% ethanol solution in PBS for the compounds No. 45, 117 and 179.
• Normal saline for Erlotinib® Dosing route: Oral for the compounds No. 45, 117 and 179, and Erlotinib® Dose Volume: 10 mL/Kg body weight Dosing schedule: Once daily for 14 consecutive days (Q1Dx14) Dosage: • Group1. Vehicle control • Group2. Erlotinib®-100 MPK • Group3. Compound No. 45—10 MPK • Group4. Compound No. 45—30 MPK • Group5. Compound No. 45—100 MPK • Group6. Compound No. 117—30 MPK • Group7. Compound No. 117—100 MPK • Group8. Compound No. 179—10 MPK • Group9. […] Plasma collected for drug concentration estimation and whole blood was collected to isolate PBMCs (peripheral blood monocytes) to determine pStat3 inhibition by flow cytometry as PD readout. Tumors were snap frozen in liquid nitrogen and stored at −80° C. to estimate pStat3 by flow cytometry as PD readout EXPT. 2
SC injection of 5×10^6 A549 tumor cells on the left flank of 24 female athymic nude mice. Randomization of mice 14 days after tumor cell injection into 3 groups of 8 mice each with a mean tumor volume of 75±7 mm3.
Formulation: 20% HPC, 2% ethanol solution in PBS for the compound No. 45
• Normal saline for Erlotinib® Dosing route: Oral for compound No. 45 and Erlotinib® Dose Volume: 10 mL/Kg body weight Dosing schedule: Once daily for 14 consecutive days (Q1Dx14) Dosage: • Group1. Vehicle control • Group2. Compound No. 45—150 MPK • Group3. […] Plasma collected for drug concentration estimation and whole blood was collected to isolate PBMCs to determine pStat3 inhibition by flow cytometry as PD readout. Tumors were snap frozen in liquid nitrogen and stored at −80° C. to estimate pStat3 by flow cytometry as PD readout Results: […]

[4] = test system: pStat3; test: In-Cell-Western blot assay for pStat3 (ICW) in A431 cells; assay type: cell-based; conditions: Homo sapiens, A-431, 2 hrs, read-out: pSTAT3 inhibition
Outline: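 Serum-starved (overnight) A431 cells treated with compound for 2 hrs, then fixed, permeabilized and probed with phospho-Stat3 antibody plus europium-labelled secondary. Europium signal normalized to Hoechst for cell number; IC50 calculated from normalized values.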

[5] = test system: B16F10 tumor cells; test: B16F10 survival model; assay type: in vivo, C57B16 mice
Description: IV injection of 0.1×10^6 B16F10 tumor cells in the tail vain of 60 male C57B16 mice. Randomization of mice one day after tumor cell injection into 4 groups of 15 mice. Out of 15, 6 mice were sacrificed on 14th day for counting metastatic foci on lungs. Rest 9 mice were dosed continuously till morbidity/mortality for recording survival.
Plasma collected for drug concentration estimation and whole blood was collected to isolate PBMCs to determine pStat3 inhibition by flow cytometry as PD readout.

[6] = mouse, in vivo
[7] = test system: pStat3; test: Quantification of pStat3 in tumors by flow cytometry; assay type: in vivo, mice
Description: Measured pStat3 using FACS caliber machine (BD). Unstained PBMCs was used for cytometry settings. […] Histograms (cell number V/s FL1-H) were plotted. Percentage of cells that are phosphorylated by IL6 stimulation (M2 population), and inhibition of phosphorylation by inhibitor (decrease in M2 population) are calculated on histogram by marking peaks, M1 and M2.
Separate the tumour & 200 mg of tumour was crashed (45 mg per ml) by using IKA 10 at Speed #4 for 10 seconds. Sieve the tumour extract through 100 u, centrifuge at 900 g for 10 min. Re-suspend cells briefly in 0.5-1 ml PBS. Add formaldehyde to a final concentration of 2-4% formaldehyde. Fix for 10 minutes at 37° C. Chill tubes on ice for 1 minute.
Permeabilize cells by adding ice-cold 100% methanol slowly to pre-chilled cells, while gently vortexing, to a final concentration of 90% methanol. Alternatively, to remove fix prior to permeabilization, pellet cells by centrifugation and re-suspend in 90% methanol. Incubate 30 minutes on ice. Proceed with staining or store cells at −20° C. in 90% methanol. Aliquot 0.5-1×10^6 cells into each assay tube (by volume). Add 2-3 ml Incubation Buffer to each tube and rinse by centrifugation. Repeat. Re-suspend cells in 100 μl Incubation Buffer per assay tube. Analyze by flow cytometry like PBMCs.

[8] = molecular target: JAK1 (Homo sapiens (Human), UniProt P23458); test: JAK1 kinase inhibition; assay type: biochemical
Chain of JAK1 (P23458 whole entry): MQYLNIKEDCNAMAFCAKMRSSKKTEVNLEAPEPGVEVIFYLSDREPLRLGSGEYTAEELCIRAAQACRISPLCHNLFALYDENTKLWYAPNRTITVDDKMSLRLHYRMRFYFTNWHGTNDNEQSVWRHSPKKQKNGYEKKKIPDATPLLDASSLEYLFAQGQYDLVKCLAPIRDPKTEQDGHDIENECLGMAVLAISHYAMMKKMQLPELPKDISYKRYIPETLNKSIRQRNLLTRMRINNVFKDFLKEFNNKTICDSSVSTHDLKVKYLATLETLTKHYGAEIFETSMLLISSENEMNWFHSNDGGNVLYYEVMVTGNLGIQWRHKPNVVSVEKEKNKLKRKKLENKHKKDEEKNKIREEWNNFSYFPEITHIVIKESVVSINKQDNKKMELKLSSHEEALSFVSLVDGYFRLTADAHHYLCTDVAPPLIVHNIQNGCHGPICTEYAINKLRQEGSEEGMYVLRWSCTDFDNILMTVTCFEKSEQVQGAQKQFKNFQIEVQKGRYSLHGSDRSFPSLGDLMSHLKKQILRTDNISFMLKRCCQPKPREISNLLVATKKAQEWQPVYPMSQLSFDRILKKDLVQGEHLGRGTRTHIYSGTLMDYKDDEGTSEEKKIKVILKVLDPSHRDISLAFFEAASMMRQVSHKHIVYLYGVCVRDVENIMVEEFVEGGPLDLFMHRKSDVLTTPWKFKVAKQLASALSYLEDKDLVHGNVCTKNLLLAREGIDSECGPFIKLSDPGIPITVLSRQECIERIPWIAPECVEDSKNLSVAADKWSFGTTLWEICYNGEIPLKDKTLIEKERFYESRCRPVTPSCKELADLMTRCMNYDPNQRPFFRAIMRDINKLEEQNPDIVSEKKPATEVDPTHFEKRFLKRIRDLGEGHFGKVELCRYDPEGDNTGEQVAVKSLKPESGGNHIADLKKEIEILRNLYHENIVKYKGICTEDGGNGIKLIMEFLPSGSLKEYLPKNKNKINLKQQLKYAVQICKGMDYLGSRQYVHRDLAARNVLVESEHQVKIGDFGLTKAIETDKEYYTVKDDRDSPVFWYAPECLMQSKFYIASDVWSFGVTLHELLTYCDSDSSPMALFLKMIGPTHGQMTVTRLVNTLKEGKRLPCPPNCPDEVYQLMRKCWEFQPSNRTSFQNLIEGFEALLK

Chain of c-Src (P12931 whole entry, looked up): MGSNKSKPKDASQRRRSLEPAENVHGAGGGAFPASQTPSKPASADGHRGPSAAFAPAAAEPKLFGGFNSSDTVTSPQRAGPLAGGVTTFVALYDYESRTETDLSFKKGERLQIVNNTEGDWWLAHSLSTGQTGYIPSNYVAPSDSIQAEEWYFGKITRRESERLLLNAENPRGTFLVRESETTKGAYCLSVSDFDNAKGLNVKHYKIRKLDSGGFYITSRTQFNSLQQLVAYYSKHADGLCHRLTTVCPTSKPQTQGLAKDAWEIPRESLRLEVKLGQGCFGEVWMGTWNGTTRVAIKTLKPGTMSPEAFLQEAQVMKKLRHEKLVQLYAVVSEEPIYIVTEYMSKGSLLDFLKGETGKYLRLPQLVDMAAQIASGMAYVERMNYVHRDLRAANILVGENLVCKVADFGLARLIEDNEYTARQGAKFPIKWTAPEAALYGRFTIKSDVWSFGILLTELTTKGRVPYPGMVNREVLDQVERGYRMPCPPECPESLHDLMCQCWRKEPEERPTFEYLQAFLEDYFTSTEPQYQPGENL

Structure (SMILES)	IC50 [1] [nM]	EC50 [2] [nM]	TGI ([3]; Efficacy - A549, at 100 MPK) [% at]	IC50 [4] [nM]	Survival advantage ([5]; Efficacy - B16F10 at 100 MPK)	MTD [6] [MPK]	% pSTAT3 inhib. (tumour) ([7]; Efficacy - A431 at 100 MPK) [%]	% pSTAT3 inhib. (tumour) ([7]; Efficacy - A549, at 100 MPK) [% at]	IC50 [8] [nM]	inhibition at 0.1 µM [1] [%]	inhibition at 1 µM [1] [%]	other results
Cc1ccc(NC(=O)c2cccc(C(F)(F)F)c2)cc1N1CCc2nc(Nc3ccc(N4CCN(C)CC4)cc3)ncc2C1=O [Compound 45, N-(4-Methyl-3-{2-[4-(4-methyl-piperazin-1-yl)-phenylamino]-5-oxo-7,8-dihydro-5H-pyrido[4,3-d]pyrimidin-6-yl}-phenyl)-3-trifluoromethyl-benzamide]	10	1830	64	220	9 days	250	45	62	116	–	–	% TGI (Tumor Growth Inhibition) ([3]; A549 Xenograft model, 10 MPK): 28.90%; % TGI (Tumor Growth Inhibition) ([3]; A549 Xenograft model, 30 MPK): 55.62%; % TGI (Tumor Growth Inhibition) ([3]; A549 Xenograft model, 100 MPK): 63.86%; % TGI (Tumor Growth Inhibition) ([3]; A549 Xenograft model, 150 MPK): 53.74%; TGI ([3]; A549 Xenograft model, 150 MPK): 54; tumor growth inhibition ([3]; A549 xenograft model, 100 MPK (Q1Dx14)): 64%; compound related toxicity ([3]; up to 150 MPK during A549 efficacy study): No major effects of compound related toxicity; Survival advantage ([5]; B16F10 survival model, dosing Q1Dx14): 37.5%; good tolerance ([6]; athymic, 14 days): up to 250 MPK; Tumors % pStat3 inhibition ([7]; A431 Xenograft model, 100 MPK): 44.3%; Tumors % pStat3 inhibition ([7]; A549 Xenograft model, 10 MPK): 44.46%; Tumors % pStat3 inhibition ([7]; A549 Xenograft model, 30 MPK): 48.92%; Tumors % pStat3 inhibition ([7]; A549 Xenograft model, 100 MPK): 61.51%; Tumors % pStat3 inhibition ([7]; A549 Xenograft model, 150 MPK): 57.08%; inhibition at 0.1 µM ([8]; read-out: JAK1 % inhibition at 100 nM): 56%; inhibition at 1 µM ([8]; read-out: JAK1 % inhibition at 1 μM): 82%
Cc1ccc(NC(=O)c2cccc(C(F)(F)F)c2)cc1N1CCc2nc(Nc3ccc(C(=O)NC4CC4)nc3)ncc2C1 [Compound 117, 5-{6-[2-Methyl-5-(3-trifluoromethyl-benzoylamino)-phenyl]-5,6,7,8-tetrahydro-pyrido[4,3-d]pyrimidin-2-ylamino}-pyridine-2-carboxylic acid cyclopropylamide]	–	660	56	340	1 day days	100	10	47	24	80	96	–
CNC(=O)c1ccc(Nc2ncc3c(n2)CCN(c2cc(NC(=O)c4cc(C(F)(F)F)ccn4)ccc2Cl)C3)cc1 [Compound 179, 4-Trifluoromethyl-pyridine-2-carboxylic acid {4-chloro-3-[2-(4-methylcarbamoyl-phenylamino)-7,8-dihydro-5H-pyrido[4,3-d]pyrimidin-6-yl]-phenyl}-amide]	15	900	–	280	4 days	30	54	–	12	79	93	TGI ([3]; Efficacy - A549, at 30 MPK): 68% at; % pSTAT3 inhib. (tumour) ([7]; Efficacy - A549, at 30 MPK): 79% at
